Experimental data as given in patent US20120015925A1, “NOVEL BENZOTHIAZEPINE AND BENZOTHIEPINE COMPOUNDS” (ASAHI KASEI PHARMA CORPORATION, priority 2004, published 2012).

What was measured:
rats dosed cholic acid = test: Lowering effect on bile acid concentrations in portal vein blood in rats dosed cholic acid; type: in vivo, rat
Protocol: In the present Test Example, a lowering effect on bile acid concentrations in portal vein blood in rats dosed cholic acid was evaluated according to the method described in Jpn. Pharmacol. Ther., Vol. 24 Supplement, 1996, 103(S-577)-110(S-584).
That is, SD (IGS) strain male rats at 7 to 9 weeks of age were fasted one day before the administration date. […] The blood was collected from the portal vein 2 hours after the forced oral administration, and a total bile acid value in serum was measured to examine the effect of the test compound (n=6). As a control, another group (n=6) merely received cholic acid (200 mg/kg), to which the same procedure was applied. The cholic acid value was measured using the commercially available kit (brand name: Total Bile Acid-Test Wako, supplied form Wako Pure Chemical Industries). Defining the value in the control group to which no test compound had been administered as being 100%, a reduction rate (%) of the bile acid value when a certain amount of the test compound had been administered was calculated.

Caco-2 cell = test: Gastrointestinal toxicity: cytotoxicity against Caco-2 cell (LDH activity); type: cell-based, human; settings: for CELL TOXICITY AGAINST Caco2 3 μM / CELL TOXICITY AGAINST Caco2 10 μM / CELL TOXICITY AGAINST Caco2 30 μM: 2 hours, LDH activity in medium relative to cell lysis agent = 100%
Protocol: That is, 10,000 cells/well of Caco-2 cells (purchased from ATCC) were seeded in a 96-well plate [MEM-E medium, 10% FBS (Fetal Bovine Serum), 1% NEAA (Non Essential Amino Acid) solution, supplied from Gibco]. After culturing for 48 hours, the test compound diluted with the medium was added to each well. After 2 hours, 50 μL of the medium was collected, and an LDH activity in the medium was measured using an LDH activity measurement kit (CytoTox96 Non-Radioactive Cytotoxicity Assay, supplied from Promega). Defining the LDH activity of the Caco-2 cells treated with a cell lysis agent as being 100%, the relative activity was calculated as a index of the cytotoxicity.

human IBAT = molecular target: T1, human IBAT (Homo sapiens, UniProt Q12908); test: In vitro assay using Cos 7 cells, transiently expressed human IBAT; type: cell-based; settings: [3H]-taurocholate 8 μM uptake, 37° C., 60 minutes
T1 sequence (Q12908 1-348): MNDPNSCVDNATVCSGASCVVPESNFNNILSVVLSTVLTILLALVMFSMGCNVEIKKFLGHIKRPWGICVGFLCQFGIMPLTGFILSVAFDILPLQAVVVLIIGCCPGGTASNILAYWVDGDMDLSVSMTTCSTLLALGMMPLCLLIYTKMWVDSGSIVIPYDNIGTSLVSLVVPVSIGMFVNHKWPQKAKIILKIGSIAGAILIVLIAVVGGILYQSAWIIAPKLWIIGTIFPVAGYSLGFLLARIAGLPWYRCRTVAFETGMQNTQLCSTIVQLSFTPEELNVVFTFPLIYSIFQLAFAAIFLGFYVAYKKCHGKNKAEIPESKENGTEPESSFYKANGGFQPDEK
Protocol: In the present Test Example, an in vitro assay of compounds using Cos 7 cells as to inhibitory activity on transiently expressed human IBAT or rat IBAT transporter was performed according to the method described in Am. J. Physiol., 274, G157-169.
That is, […] cells/well of Cos 7 cells were seeded in a 24-well plate, and after one day, the cells were transfected with 0.3 μg/well of cDNA of human IBAT or rat IBAT using FuGENE6 (supplied from Roche). After culturing for one day after the transfection, the cells were washed once with the assay buffer, i.e., Hanks buffer containing 25 mM glucose and 10 mM HEPES (pH 7.4). The assay buffer was then replaced with the assay buffer containing the test compound. [^3H]-Taurocholate at a final concentration of 8 μM was added thereto and incubated at 37° C. for 60 minutes so that [^3H]-taurocholate was taken into Cos 7 cells by the action of human IBAT or rat IBAT. The cells were washed twice with the assay buffer containing 1 mM taurocholate, and subsequently lysed with 0.2 M NaOH to stop the reaction. The cell lysate was added to 4 mL of liquid scintillation cocktail, which was then thoroughly vortexed. Then the radioactivity was measured using the liquid scintillation counter.

Row | SMILES | CELL TOXICITY AGAINST Caco2 3 μM (Caco-2 cell) [%] | CELL TOXICITY AGAINST Caco2 10 μM (Caco-2 cell) [%] | CELL TOXICITY AGAINST Caco2 30 μM (Caco-2 cell) [%] | IC50 (human IBAT) [nM] | further results
1 | CCCCC1(CCCC)CS(=O)(=O)c2ccc(N(C)C)cc2C(c2ccc(NC(=S)Nc3ccc(C[N+](C)(C)Cc4ccccc4)cc3)cc2)N1.[Br-] (stereo not shown) [Example 5405, Benzyl-(4-{3-[4-(3,3-dibutyl-7-dimethylamino-1,1-dioxo-2,3,4,5-tetrahydro-1,4-benzothiazepine-5-yl)phenyl]thioureido}benzyl)dimethylammonium bromide] | – | – | – | – | BILE ACID REDUCTION RATE (%) IN RAT MODEL WITH CHOLIC ACID LOADING (rats dosed cholic acid; po, 0.1 mg/kg, 2 h): 16%
2 | CCCCCC1(CCCCC)CS(=O)(=O)c2ccc(N(C)C)cc2C(c2cccc(NC(=S)Nc3ccc(CC[N+](C)(C)Cc4ccccc4)cc3)c2)N1.[Br-] (racemic) [EXAMPLE 5856] | <1 | <1 | <1 | – | –
3 | CCCCC1(CCCC)CS(=O)(=O)c2ccc(N(C)C)cc2C(c2cccc(NC(=S)Nc3ccc(C[N+]45CCC(c6ccccc6)(CC4)CC5)c(Br)c3)c2)N1.[Br-] (stereo not shown) [EXAMPLE P347] | – | <1 | <1 | 24 | –
4 | CCCCc1ccc[n+](Cc2ccc(NC(=S)Nc3cccc(C4NC(CCCC)(CCCC)CS(=O)(=O)c5ccc(N(C)C)cc54)c3)cc2)c1.[Br-] (stereo not shown) [EXAMPLE 3723] | <1 | <1 | <1 | 25 | –
5 | CCCCC1(CCCC)CS(=O)(=O)c2ccc(N(C)C)cc2C(c2cccc(NC(=S)Nc3ccc(C[N+]45CCN(CC4)CC5)cc3)c2)N1.[Br-] (stereo not shown) [EXAMPLE 3705] | <1 | <1 | <1 | 54 | –
6 | CCCCC1(CCCC)CS(=O)(=O)c2ccc(N(C)C)cc2C(c2cccc(NC(=S)Nc3ccc(C[N+]45CCC(c6ccccc6)(CC4)CC5)c(Cl)c3)c2)N1.[Br-] (stereo not shown) [EXAMPLE P345] | – | <1 | <1 | 23 | –
7 | CCCCCC1(CCCCC)CS(=O)(=O)c2ccc(N(C)C)cc2C(c2cccc(NC(=S)Nc3ccc(C[N+]45CCC(CC4)CC5)cc3)c2)N1.[Br-] (racemic) [EXAMPLE 5735] | <1 | <1 | <1 | – | –
8 | CCCCC1(CCCC)CS(=O)(=O)c2ccc(N(C)C)cc2C(c2ccc(NC(=S)Nc3cccc(C[N+]45CCC(CC4)CC5)c3)cc2)N1.[Br-] (stereo not shown) [Example 5406, 1-(3-{3-[4-(3,3-dibutyl-7-dimethylamino-1,1-dioxo-2,3,4,5-tetrahydro-1,4-benzothiazepine-5-yl)phenyl]thioureido}benzyl)-1-azoniabicyclo[2.2.2]octane bromide] | – | – | – | – | BILE ACID REDUCTION RATE (%) IN RAT MODEL WITH CHOLIC ACID LOADING (rats dosed cholic acid; po, 0.1 mg/kg, 2 h): 15%
9 | CCCCCC1(CCCCC)CS(=O)(=O)c2ccc(N(C)C)cc2C(c2cccc(NC(=S)Nc3ccc(C[N+](C)(C)Cc4ccccc4)cc3)c2)N1.[Br-] (stereo not shown) [EXAMPLE 5480] | <1 | <1 | <1 | – | –
10 | CCCCC1(CCCC)CS(=O)(=O)c2ccc(N(C)C)cc2C(c2cccc(NC(=S)Nc3ccc(C[n+]4ccc(C)cc4)cc3)c2)N1.[Br-] (stereo not shown) [EXAMPLE 3709] | <1 | <1 | <1 | 49 | –
11 | CCCCC1(CCCC)CS(=O)(=O)c2ccc(N(C)C)cc2C(c2cccc(NC(=S)NCCC[N+]34CCC(CC3)CC4)c2)N1.[Br-] (stereo not shown) [Example 9, 1-(3-{3-[3-(3,3-dibutyl-7-dimethylamino-1,1-dioxo-2,3,4,5-tetrahydro-1,4-benzothiazepine-5-yl)phenyl]thioureido}propyl)-1-azoniabicyclo[2.2.2]octane bromide] | – | – | – | – | BILE ACID REDUCTION RATE (%) IN RAT MODEL WITH CHOLIC ACID LOADING (rats dosed cholic acid; 0.1 mg/kg oral, surfactant Tween 20 0.05%, cholic acid 200 mg/kg, portal vein blood 2 hours after administration): 13%
12 | CCCCC1(CCCC)CS(=O)(=O)c2ccc(N(C)C)cc2C(c2cccc(NC(=S)Nc3ccc(C[N+]45CCC(c6ccccc6)(CC4)CC5)c(C(F)(F)F)c3)c2)N1.[Br-] (stereo not shown) [EXAMPLE P348] | – | <1 | <1 | 22 | –
13 | CCCCC1(CCCC)CS(=O)(=O)c2ccc(N(C)C)cc2C(c2ccc(OCc3ccc(C[N+]45CCN(CC4)CC5)cc3)cc2)N1.[Cl-] (stereo not shown) [Comparative Example, 1-{4-[4-(3,3-dibutyl-7-dimethylamino-1,1-dioxo-2,3,4,5-tetrahydro-1,4-benzothiazepine-5-yl)phenoxymethyl]benzyl}-4-aza-1-azoniabicyclo[2.2.2]octane chloride, reference compound] | – | – | – | – | cytotoxicity to the Caco-2 cell (Caco-2 cell; LDH activity in medium after 2 hours): exhibited the cytotoxicity to the small intestine epithelial cell line at low concentrations
14 | CCCCC1(CCCC)CS(=O)(=O)c2ccc(N(C)C)cc2C(c2cccc(NC(=S)Nc3ccc(C[N+]45CCC(c6ccccc6)(CC4)CC5)cc3Cl)c2)N1.[Br-] (stereo not shown) [EXAMPLE P344] | – | <1 | <1 | 19 | –
15 | CCCCC1(CCCC)CS(=O)(=O)c2ccc(N(C)C)cc2C(c2cccc(NC(=S)NCCCC[N+](C)(C)Cc3ccccc3)c2)N1.[Br-] (stereo not shown) [EXAMPLE 801] | – | – | – | – | BILE ACID REDUCTION RATE (%) IN RAT MODEL WITH CHOLIC ACID LOADING (rats dosed cholic acid; 0.1 mg/kg oral, surfactant HCO-60 0.1%, cholic acid 200 mg/kg, portal vein blood 2 hours after administration): 33%
16 | CCCCC1(CCCC)CS(=O)(=O)c2ccc(N(C)C)cc2C(c2cccc(NC(=S)Nc3ccc(C[N+]45CCC(c6ccccc6)(CC4)CC5)cc3C)c2)N1.[Br-] (stereo not shown) [EXAMPLE P340] | – | <1 | <1 | 28 | –
17 | CCCCC1(CCCC)CS(=O)(=O)c2ccc(N(C)C)cc2C(c2cccc(NC(=S)Nc3ccc(C[n+]4cccc(F)c4)cc3)c2)N1 (stereo not shown) [EXAMPLE 5416] | – | – | – | 77 | –
18 | CCCCC1(CCCC)CS(=O)(=O)c2ccc(N(C)C)cc2C(c2cccc(NC(=S)Nc3ccc(C[n+]4ccc(C(C)(C)C)cc4)cc3Br)c2)N1 (stereo not shown) [EXAMPLE P370] | – | – | – | 30 | –
19 | CCCCCC1(CCCCC)CS(=O)(=O)c2ccc(N(C)C)cc2C(c2cccc(NC(=S)Nc3ccc(CC[N+]45CCC(CC4)CC5)cc3)c2)N1.[Br-] (racemic) [EXAMPLE 5857] | <1 | <1 | <1 | – | –
20 | CCCCC1(CCCC)CS(=O)(=O)c2ccc(N(C)C)cc2C(c2cccc(NC(=S)Nc3ccc(C[N+](C)(C)Cc4ccccc4)c(F)c3)c2)N1 (stereo not shown) [EXAMPLE P331] | – | – | – | 35 | –
21 | CCCCC1(CCCC)CS(=O)(=O)c2ccc(N(C)C)cc2C(c2cccc(NC(=S)Nc3ccc(C[n+]4ccc(-c5ccccc5)cc4)cc3C)c2)N1 (stereo not shown) [EXAMPLE P376] | – | – | – | 37 | –
22 | CCCCC1(CCCC)CS(=O)(=O)c2ccc(N(C)C)cc2C(c2cccc(NC(=S)Nc3ccc(C[N+](C)(C)Cc4ccccc4)cc3F)c2)N1 (stereo not shown) [EXAMPLE P330] | – | – | – | 32 | –
